Assay results from US7534769B2, “Compositions and methods for enhancing delivery of therapeutic agents to cells” (Canji, Inc., priority 1996, dated 2009).
“Also recorded” adds a separate entry of the source.

Tests used:
[1] = test system: bladder epithelium; assay: rAd-βgal gene transfer to bladder epithelium in detergent formulations, Xgal staining score and gross pathology; conditions: detergents at their critical micellization concentration
Description: rAd-βgal was formulated in different detergents at their critical micellization concentration to evaluate efficiency of gene transfer to the bladder epithelium. Female rats (about 200 g b/w, Harlan Sprague Dawley) were anesthetized with isoflurane and received a single intravesical administration of rAd-βgal (1×10^11 PN/ml) in different detergent formulations (see Table I). Before instillation, bladders were flushed with PBS and then emptied. rAd-βgal was then instilled in a volume of 0.5 ml. The instilled solution was retained in the bladder for 45 minutes. The bladders were then flushed with PBS, and the animals were permitted to recover from the procedure. 48 hours after administration, the rats were sacrificed, the bladders harvested, and fixed in formalin. After fixation, the bladders were opened longitudinally so that the urothelium was exposed to the chromogen (Xgal), that is converted to a blue color, if reporter gene (β-galactosidase) expression is present. The luminal epithelial surface of the whole bladder was photographed an blue staining scored: + (minimal staining), ++ (moderate staining), +++ intense staining covering the whole bladder epithelial surface.
Briefly, in anaesthetized female rats rAd-βgal (1×10^11 PN/ml) was administered into the bladder via an intravesical catheter. rAd-βgal was formulated in different concentrations of Big CHAP (CALBIOCHEM®). A volume of 0.5 ml was injected and remained instilled in the bladder for 45 minutes. The animals were sacrificed 48 hours later, the bladder fixed in 4% formalin/glutaraldehyde, opened longitudinally, and the β-galactosidase enzyme activity measured using Xgal substrate. The intensity of blue staining correlates with the βgal-transgene expression.
Effects of higher recombinant adenovirus concentrations were also tested. Briefly, in anaesthetized female rats different concentrations of rAd-βgal, formulated in 7 mM Big CHAP (CALBIOCHEM®) were administered into the bladder via an intravesical catheter. The animals were sacrificed 48 hours later, the bladder fixed in 4% formalin/glutaraldehyde, opened longitudinally, and Xgal stained.

[2] = test system: bladder epithelium; assay: Effect of Big CHAP sources, purified Big CHAP and impurities on rAd-βgal gene transfer to bladder epithelium; assay type: in vivo, rat; conditions: for rAd mediated gene transfer and expression: Big CHAP at 6 mg/ml; for epithelial gene expression: increasing concentrations of BC (Sigma), 20 mg/ml; for cystitis / bladder irritation: Impurity I; for gene transfer and expression: column chromatography purified BC, 30 mg/ml
Description: Alternate commercial sources of Big CHAP (BC) were tested for the ability to enhance rAd (recombinant adenovirus) mediated gene transfer and expression, essentially according to the method described above in Example 8.
The results are depicted in FIG. 17.
rAd-βgal was formulated in 30 mg/ml of the column chromatography purified material of both BCs and gene transfer to the bladder epithelium tested as described above.
Three impurities of BC (CALBIOCHEM®) were detected by TLC (FIG. 15) and isolated by column chromatography for gene transfer studies. Impurity I and a mixture of impurity II and impurity III were diluted in VPBS (0.6 mg/ml or 6 mg/ml) to test their efficiency in improving rAd mediated gene transfer to the bladder epithelium. […] Positive control formulation (BC, CALBIOCHEM®, upper panel, left), and the negative control formulations (BC—CALBIOCHEM®, column chromatography purified and BC—Sigma) were used at a concentration of 6 mg/ml (upper panel, right).
In this experiment, 10 mg/ml of BC (Sigma, FIG. 20 upper middle panel) was reconstituted with Impurity III (upper right panel), impurity II (lower left panel), or synthesized analog of impurity III (lower right panel). rAd-βgal, 1×10^11 PN/ml, was prepared in the spiked formulations and administered intravesically as described above.
Calbiochem Big CHAP was fractionated by column chromatography to obtain essentially pure impurities “1”, “2”, and “3” for biological testing as well as structural analysis.

[3] = Solubility and dissolution behaviour; assay type: physicochemical
[4] = test system: bladder; assay: Gene transfer activity of water-soluble Syn3 analogs in vivo, whole organ Xgal staining; parameters: species or system rat; conditions: for gene transfer activity compared to controls: 1 mg/ml
Description: A concentration of 1 mg/ml was chosen for initial testing of both compounds.
The solution of A-TMA was prepared by dissoluting 10 mg of A-TMA into 10 ml Dulbecco's PBS. Glycerol was added to provide a final concentration of 10 mg/ml. All solutions were sterile filtered prior to use (0.2 μm Acrodisc syring filter). The virus (BGCG 70AAB) was diluted 1:10 into either this A-TMA solution, or into Dulbecco's PBS-glycerol prior to administration.
Ten mg of A-HCl was dissoluted into this buffer and sterile filtered prior to use (0.2 μm Acrodisc suring filter). The virus (BGCG 70AAB) was diluted 1:10 into this solution prior to administration. For comparison, the virus diluted into this buffer without A-HCl was also tested.
Female HSD rats were anesthetized using isofluorane. The rats were transuretherally catheterized into the bladder using PE50 tubing lubricated with K-Y jelly. A tie-off was installed on the external urethra to prevent back leakage. Urine, if any, was removed and the bladder was flushed with 0.5 ml PBS and emptied. rAd was diluted to the desired concentration (1:10) and instilled for 45 minutes. The dosing material was removed, noting the return volume. The bladder was flushed with 0.5 ml PBS and emptied. The tie-off and catheter were removed, and the animals were allowed to recover in cages.
After 48 hours, the animals were sacrificed and their bladders inflation fixed with 0.5 ml fixative for 1 hour. The bladders were then rinsed overnight and whole organ Xgal staining was conducted.

CCCCCCCCCCCCCC[N+](C)(C)CCCS(=O)(=O)[O-] [Zwittergent ® 3-14, reference compound]
gene transfer to the bladder epithelium (Table I) [1]: enhanced gene transfer dramatically

C[C@H](CCC(=O)NCCS(=O)(=O)O)[C@H]1CC[C@H]2[C@@H]3CC[C@@H]4C[C@H](O)CC[C@]4(C)[C@H]3C[C@H](O)[C@]12C [Taurodeoxycholate, reference compound]
gene transfer to the bladder epithelium (Table I) [1]: enhanced gene transfer dramatically

C[C@H](CCC(=O)N(CCCNC(=O)[C@H](O)[C@@H](O)[C@H](O)[C@H](O)CO)CCCNC(=O)[C@H](O)[C@@H](O)[C@H](O)[C@H](O)CO)[C@H]1CC[C@H]2[C@@H]3[C@H](O)C[C@@H]4C[C@H](O)CC[C@]4(C)[C@H]3C[C@H](O)[C@]12C [Big CHAP (Sigma), N,N,bis-(3-D-gluconamidopropyl)-cholamide]
gene transfer ([2]; 26 mg/ml): found to enhance gene transfer | rAd mediated gene transfer and expression ([2]; listed as BC—Sigma): did not markedly improve rAd mediated gene transfer | rAd mediated gene transfer and expression ([2]; listed as Sigma Big CHAP): does not enhance gene transfer | epithelial gene expression [2]: enhanced gene transfer at higher concentrations | epithelial gene expression ([2]; listed as Sigma BC): improved epithelial gene expression

C[C@H](CCC(=O)NCCCN(CCCN)C(=O)CC[C@@H](C)[C@H]1CC[C@H]2[C@@H]3[C@H](O)C[C@@H]4C[C@H](O)CC[C@]4(C)[C@H]3C[C@H](O)[C@]12C)[C@H]1CC[C@H]2[C@@H]3[C@H](O)C[C@@H]4C[C@H](O)CC[C@]4(C)[C@H]3C[C@H](O)[C@]12C.Cl [A-HCl]
solubility in saline [3]: not completely soluble in saline | pH of solution ([3]; dissolution into dH2O): 4.7 | gene transfer activity compared to controls [4]: significantly above those levels obtained by controls

COC(=O)CC[C@@H](C)[C@H]1CC[C@H]2[C@@H]3[C@H](O)C[C@@H]4C[C@H](O)CC[C@]4(C)[C@H]3C[C@H](O)[C@]12C [Impurity I]
cystitis / bladder irritation [2]: caused cystitis | cystitis / bladder irritation ([2]; listed as Impurity 1): bladder irritation | β-galactosidase gene expression in the bladder epithelium ([2]; impurities diluted in VPBS, 0.6 mg/ml or 6 mg/ml): did not lead to increased β-galactosidase gene expression

C[C@H](CCC(=O)N(CCCNC(=O)[C@H](O)[C@@H](O)[C@H](O)[C@H](O)CO)CCCNC(=O)[C@H](O)[C@@H](O)[C@H](O)[C@H](O)CO)[C@H]1CC[C@H]2[C@@H]3[C@H](O)C[C@@H]4C[C@H](O)CC[C@]4(C)[C@H]3C[C@H](O)[C@]12C [Big CHAP, N,N,bis-(3-D-gluconamidopropyl)-cholamide, reference compound]
solubility in water / aqueous solutions (in words) [3]: highly water soluble

C[C@H](CCC(=O)NCCCN(CCC[N+](C)(C)C)C(=O)CC[C@@H](C)[C@H]1CC[C@H]2[C@@H]3[C@H](O)C[C@@H]4C[C@H](O)CC[C@]4(C)[C@H]3C[C@H](O)[C@]12C)[C@H]1CC[C@H]2[C@@H]3[C@H](O)C[C@@H]4C[C@H](O)CC[C@]4(C)[C@H]3C[C@H](O)[C@]12C.[Cl-] [A-TMA]
gene transfer activity compared to controls [4]: significantly above those levels obtained by controls | gene transfer activity ([4]; individual animals, 1 mg/ml in PBS/1% Glycerol (A-TMA) or Buffer D (A-HCl)): + +

Pluronic F68 [reference compound]
gene transfer to the bladder epithelium (Table I) [1]: did not have similar effects

C[C@H](CCC(=O)NCCC[N+](C)(C)CCCS(=O)(=O)[O-])[C@H]1CC[C@H]2[C@@H]3[C@H](O)C[C@@H]4C[C@H](O)CC[C@]4(C)[C@H]3C[C@H](O)[C@]12C.O [Chaps, 3-[(3-Cholamidopropyl)dimethylammoniol]-1-propanesulfonate hydrate, reference compound]
gene transfer to the bladder epithelium (Table I) [1]: enhanced gene transfer dramatically

C[C@H](CCC(=O)N(CCCNC(=O)[C@H](O)[C@@H](O)[C@H](O)[C@H](O)CO)CCCNC(=O)[C@H](O)[C@@H](O)[C@H](O)[C@H](O)CO)[C@H]1CC[C@H]2[C@@H]3[C@H](O)C[C@@H]4C[C@H](O)CC[C@]4(C)[C@H]3C[C@H](O)[C@]12C [purified Big CHAP (CALBIOCHEM®)]
gene transfer and expression [2]: only slightly enhanced; also recorded: reduced ability to enhance gene transfer

C[C@H](CCC(=O)N(CCCNC(=O)[C@H](O)[C@@H](O)[C@H](O)[C@H](O)CO)CCCNC(=O)[C@H](O)[C@@H](O)[C@H](O)[C@H](O)CO)[C@H]1CC[C@H]2[C@@H]3[C@H](O)C[C@@H]4C[C@H](O)CC[C@]4(C)[C@H]3C[C@H](O)[C@]12C [purified Big CHAP (Sigma)]
gene transfer and expression [2]: reduced ability to enhance gene transfer | gene transfer and expression ([2]; listed as purified Sigma BC): without any effect
